Measurements as given in US5162571A, “Phenol derivatives, their production and use” (Takeda Chemical Industries, Ltd., priority 1987, dated 1992).

Columns and labels:
[1] = test system: lipid peroxides production in rat brain homogenates; assay: Inhibitory action on lipid peroxides production in rat brain homogenates; format: biochemical; conditions: 10^-5 M
Procedure: Inhibitory action on lipid peroxides production in rat brain homogenates
Method: The male SD rat brain tissue was used as 5% homogenate in phosphate-buffered solution. After incubation of the homogenate for 1 hour at 37° C., the amount of lipid peroxides produced was determined by the thiobarbituric acid method according to the description of Ohkawa et al. (Analytical Biochemistry, 95: 551, 1979)
Test compounds were used as a solution of dimethylsulfoxide. The inhibitory action on lipid peroxide production was expressed as a % inhibition as compared with the amount of production in the vehicle group.

[2] = molecular target: T1, Thromboxane A2 (TXA2) receptor (Oryctolagus cuniculus, UniProt Q6WQI8); assay: Thromboxane A2 (TXA2) receptor antagonism: inhibitory effect on contraction of rabbit aorta by TXA2-mimics; format: cell-based; conditions: U-44069 (10^-7 M)-induced contraction; for inhibition at 1 µM: 10^-6 M; for inhibition at 0.1 µM: 10^-7 M
T1 construct: contraction by TXA2 mimics U-44069 or U-46619
T1 sequence (Q6WQI8 1-233): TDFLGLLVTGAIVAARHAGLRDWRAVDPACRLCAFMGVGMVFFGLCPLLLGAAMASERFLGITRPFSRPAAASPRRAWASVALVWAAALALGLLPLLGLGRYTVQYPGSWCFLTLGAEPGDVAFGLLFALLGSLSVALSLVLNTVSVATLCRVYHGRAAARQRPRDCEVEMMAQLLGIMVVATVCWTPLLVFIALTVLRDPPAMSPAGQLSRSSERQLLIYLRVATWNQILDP
Procedure: Thromboxane A2 (TXA2) receptor antagonism
Inhibitory effect on contraction of rabbit aorta by thromboxan A2 (TXA2)-mimics
(§1) Method: A spiral strip of the rabbit aorta (2-3 mm wide, about 3 cm long) was suspended in Krebs-Henseleit solution under the load of 2 g. The Krebs-Henseleit solution was saturated with a mixed gas of 95%O2 -5%CO2 and warmed at 37° C. Inhibition of the contraction of the vascular strip caused by a TXA2 mimic substance U-44069^1) (10^-7 M) or U-46619^2) (3×10 ^-8 M), by pretreatment with Compound No. 13 30 minutes before was studied.
1) U-44069: (5Z, 9α, 11α, 13E, 15S)-15-hydroxy-9,11-(epoxymethano)-prosta-5,13-dienoic acid (manufacturedby The Upjohn Company in U.S.A.)
2) U-46619: (5Z, 9α, 11α, […], 15S)-15-hydroxy-11,9-(epoxymethano)-prosta-5,13-dienoic acid (manufacturedby Cayman Chemical Company)
In Table 5, "*" represents addition of U-46619.

[3] = molecular target: T2, specific [^3 H] U-46619 binding to guinea pig platelet membrane (Cavia porcellus, UniProt A0A286Y4I8); assay: Inhibition of specific [^3 H] U-46619 binding to guinea pig platelet membrane; conditions: [^3 H] U-46619, 25° C., 30 min; read-out: IC50 (Concentration for 50% inhibition)
T2 construct: Platelet membranes were prepared according to the following procedure; from tissue; host or cells: guinea pig platelet membranes
T2 sequence (A0A286Y4I8 1-347): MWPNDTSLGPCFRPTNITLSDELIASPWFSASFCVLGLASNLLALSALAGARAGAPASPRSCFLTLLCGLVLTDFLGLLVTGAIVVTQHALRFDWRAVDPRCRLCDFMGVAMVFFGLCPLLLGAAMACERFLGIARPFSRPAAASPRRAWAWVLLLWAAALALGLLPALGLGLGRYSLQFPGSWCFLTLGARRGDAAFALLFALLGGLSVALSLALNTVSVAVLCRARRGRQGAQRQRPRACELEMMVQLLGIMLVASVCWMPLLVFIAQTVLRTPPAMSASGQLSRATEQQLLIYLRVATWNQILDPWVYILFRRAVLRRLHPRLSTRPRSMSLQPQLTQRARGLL
Procedure: Inhibition of specific [^3 H] U-46619 binding to guinea pig platelet membrane
Method: Blood from normal guinea pig was collected into 0.315% citrate solution containing aspirin (final concentration 1 mM) and was centrifuged at 3000 r.p.m. for […]. The PRP (platelet rich plasma) was centrifuged at 4800 r.p.m for 10 min. at 4° C. Platelet membranes were prepared according to the following procedure: In order to remove the residual plasma protein, the platelet pellet was washed once with 30 ml of buffer containing 25 mM Tris-HCl/5 mM MgCl2 (pH 7.4) and recentrifuged to pellet the platelets. The platelets were then resuspended in 20 ml of the same buffer, and the cells were disrupted by sonication. The sonication was performed on ice using a Kontes Sonicator (Vineland, N.J.). The platelets were sonicated for a total of 90 sec. with a 15 sec. burst followed by a 15 sec. intermission. The sonicated mixture was centrifuged at 100,000×g for 1 hour and the membrane fraction was suspended in the same buffer. The protein concentration was adjusted to 1 mg/ml.
The binding assay was performed at 25° C. for 30 min. One ml of the resuspended membrane fraction was incubated with […] of [^3 H] U-46619. The incubation mixture was filtered through a glass fiber membrane (GF/C, whatman) to separate the membrane bound from free [^3 H] U-46619. The membranes were quickly washed twice with 5 ml of cold buffer, mixed with 4 ml of ACS scintillation fluid and counted for [^3 H] U-46619.

[4] = test system: U-46619 (TXA2 mimic)-induced broncho-constriction; assay: Inhibitory effect on U-46619 (TXA2 mimic)-induced broncho-constriction in guinea pig; format: in vivo; conditions: Cavia porcellus, ** p < 0.01; for inhibition in vivo at 5 mg/kg: po, 5 mg/kg p.o., 1 hour before U-46619
Procedure: Inhibitory effect on U-46619 (TXA2 mimic)-induced broncho-constrictionin guinea pig
Method: Eight male Hartley guinea pigs were used per one group. The guinea pig anesthetized with urethane (1.5 g/kg, i.p.) was fixed in a dorsal position, subjected to tracheotomy and connected to a respirator through a cannula. A side branch of the tracheal cannula was connected to a respirator (Harvard apparatus rodent respirator Type 680) at the rate of 70 strokes/min. and a constant volume of 3 to 5 ml.
Inflation pressure was kept constant at 10 cm H2 O.
After treatment with gallamine triethiodide (1 mg/kg, i.v.), U-46619 (10 μg/Kg) dissolved in a physiological saline solution was given through a carotid cannula and the airway resistance was measured by the overflow technique of Konzett-Rossler method (Konzett, H. and Rossler, R., Naunyn-Schmiedegerg's Arch, Exp. Path. Pharmak., 195, 71-74 (1940). A test compound was suspended in 5% gum arabic solution and was administered orally 1 hour before the treatment with U-46619.
Alternatively, a test compound was dissolved in aqueous 50% dimethylsulfoxide solution and administered interveneously in the dosage of 0.1 ml/100 g body weight 9 minutes before the treatment of U-46619.

chorioallantoic membrane = assay: Angiogenesis inhibitory activity, shell-less chorioallantoic membrane (CAM) assay; format: in vivo, chick; conditions: 6 disks tested
Procedure: Angiogenesis inhibitory activity
Method: Shell-less chorioallantoic membrane assay.
The shell-less chorioallantoic membrane (CAM) assay was carried out by the method of Taylor and Folkman [S. Taylor and J. Folkman; Nature, 297, 307 (1982)] with a slight modification. Thus, 3-day chick embryos were removed from their shells and cultured in plastic cups on hammocks of plastic wrap. Samples along with ECGS (endothelial cell growth supplements, Collaborative Research Inc.) were placed on plastic disks (polypropylene, 6 mm in diameter). After the solution had dried, the disks were placed on the CAM of 10-day embryos. Three days later, inhibition of the neovascular formation by fumagillin was observed under a stereoscope (×20, SMZ-10, Nikon), and compared to the control disk containing ECGS as a stimulant of angiogenesis without samples.

[5] = Extension of bleeding time; format: in vivo, rat; conditions: one hour before
Procedure: Extension of bleeding time
Method: Test compounds were administered orally to rats one hour before the experiments. The rats were anesthetized and the tail was cut at 1.5 mm from the tip. Immediately, the tail was hung down into a physiological saline warmed at 37° C. The time required from initiation to stop of bleeding (bleeding time) was measured.

[6] = test system: vasoconstriction by PGD2 (rabbit aorta); assay: Inhibitory effect of vasoconstriction by PGD2; format: cell-based; conditions: Oryctolagus cuniculus; 10^-7 M; PGD2 (3×10^-6 M); n = 2; read-out: Inhibitory Rate (%)
Procedure: Inhibitory effect of vasoconstriction by PGD2
as §1, with “95% O2 -5% CO2” for “95%O2 -5%CO2”, “addition of PGD2 (3×10^-6” for “a TXA2 mimic substance U-44069^1) (10^-7”, “M)” for “M) or U-46619^2) (3×10 ^-8 M),”

Row | inhibition at 10 µM ([2]; 10^-5 M) [%] | inhibition at 1 µM [2] [%] | IC50 [3] [µM] | inhibition at 0.1 µM [2] [%] | Bleeding time ([5]; 10 mg/kg oral, control 173 ± 23, * p < 0.05) [s] | Bleeding time ([5]; 30 mg/kg oral, control 164 ± 27, ** p < 0.01) [s] | Compound | Inhibition (%) [1] [%] | inhibition in vivo at 5 mg/kg [4] [%] | Number of disks showing angiogenesis inhibition (chorioallantoic membrane; 4 μg) | Number of disks showing angiogenesis inhibition (chorioallantoic membrane; 20 μg) | inhibition at 0.1 µM [6] [%] | inhibition in vivo at 0.31 mg/kg ([4]; iv, 0.31 mg/kg i.v., 9 minutes before U-46619) [%]
1 | 100 | 56 | 0.24 | – | – | – | Cc1cc(C)c(O)c(C(CCCCCC(=O)O)c2ccc(F)cc2)c1C (stereo not shown) [Compound 1, 7-(4-fluorophenyl)-7-(2-hydroxy-3,5,6-trimethylphenyl)heptanoic acid] | 92.0 | 55 | 3 | 6 | – | –
2 | – | 99 | 0.049 | 5 | 235 ± 38 | 529 ± 154 | Cc1c(O)c(C(CCCCCC(=O)O)c2ccc(F)cc2)c(C)c2c1CCC2 (stereo not shown) [Compound 21] | – | 76 | – | – | 54 | 51
3 | – | – | 0.0023 | 98 | – | – | Cc1c(C)c(C=O)c(C)c(C(CCCCCC(=O)O)c2ccc(F)cc2)c1O (stereo not shown) [Compound 27, 7-(4-fluorophenyl)-7-(3-formyl-6-hydroxy-2,4,5-trimethylphenyl)heptanoic acid] | – | 84 | – | – | 100 | –
